The values below come from patent US5135936A, “Isomers of 1-azabicyclo[2.2.2]oct-3-yl methyl 1,4-dihydro-2,6-dimethyl-4-(3-nitrophenyl)-3,5-pyridinediacarboxylic and their use as calcium antagonists” (Marion Merrell Dow Inc., priority 1991, dated 1992).

Structures can show the parent of a compound that is named as a salt.

Assay [1] has as its system [3H]-nitrendipine binding. The conditions noted are these: rank among the enantiomers, in words; cited from earlier work.
In another assay the test system is [3H]-yohimbine binding. The conditions noted are these: rank among the enantiomers, in words; cited from earlier work.
For assay [2] the following is noted: in words; cited from earlier work.
Assay [3] addresses [3H]-Nitrendipine Binding in Rat Cortical Membranes. Put plainly: Inhibition of [3H]-Nitrendipine Binding in Rat Cortical Membranes. The conditions noted are these: rat cortex, room temperature, 90 min. As to the method: [3H]-Nitrendioine Bindino in Rat Cortex
Animals were decapitated and the cortical tissue was dissected, weighed and polytroned in about 20 volumes (w/v) of ice cold buffer ([…] TRIS HCl, pH 7.5). The tissue was then washed 3 times via centrifugation (20,000 rpm for 10 min at 4° C.) with subsequent resuspension in fresh buffer. The final pellet was resuspended prior to the assay at 22.5 mg/mL […]. Incubations were performed at room temperature for 90 min in each assay. These incubations were done in triplicate in a final assay volume of 2.0 mL. Non-specific binding was determined by the addition of 1 uM nifedipine for the [3H]-nitrendipine assay each to triplicate set of tubes. Reactions in each assay were terminated by filtration using a Brandel Cell Harvester followed by washing with ice cold buffer.
For preliminary evaluations in each assay, all compounds were examined at four log concentrations (1 nM-1 uM). full displacement curves were generated on all compounds showing inhibition of specific binding of 50% or greater at a 1 uM drug concentration. Standard reference compounds were included and evaluated in each assay. Analysis of data was done using both the EBDA Scafit program and HP-11C linear regression.

The target in the next assay is T1, Guinea Pig Ileum (Cavia porcellus, UniProt O35505).
T1 construct: The longitudinal smooth muscle is carefully separated from the underlying circular muscle layer; from tissue; host or cells: guinea pig ileum (terminal 10 cm discarded), isolated longitudinal smooth muscle
Put plainly: Calcium Channel Antagonist Activity in Guinea Pig Isolated Ileal Smooth Muscle (inhibition of Ca++ evoked contractions). The conditions noted are these: concentration producing a two-fold rightward shift in the control Ca++ curve; KCl-depolarized (80 mM) longitudinal smooth muscle. The source says: Calcium Channel Antagonist Activity in Guinea Pig Isolated Ileal Smooth Muscle
Male albino guinea pigs are sacrificed by stunning and exsanguination. The abdominal cavity is opened and the small intestine is removed, with about 10 cm of the terminal ileum being discarded. The tissue is placed in a dish containing Tyrode's solution of the following composition (in mM): NaCl 136.90; KCl 2.68; NaHCO3 11.90; NaH2 PO4 0.36; MgCl2 0.98; CaCl2 1.77; dextrose 5.55 and cut into three to four segments. A glass rod (6 mm diameter) is carefully inserted into the lumen of each segment and excess connective tissue or fat is removed. The longitudinal smooth muscle is carefully separated from the underlying circular muscle layer by gently stroking a moist cotton swab on a tangent to shallow, longitudinal incisions made parallel to the mesenteric attachment. Using gentle traction, and taking care to keep the segment moist at all times, the preparation is stripped from the remaining length of the ileal segment (Paton, W. D. M.; Zar, M. A.; J. Physiol. 1968, 194, 13.)
Each preparation is suspended in a 10 mL jacketed glass tissue bath containing Tyrode's solution maintained at 37° C. and gassed with 5% CO2 in O2. The preparation is attached by silk thread to a force-displacement transducer. […] The initial resting tension is adjusted to 0.5 g and the preparation equilibrated for 55 min prior to experimentation. At the end of this period, the bathing solution is replaced with Ca^++ free Tyrode's solution. This solution is prepared by omitting CaCl2. The preparation is washed four times in Ca^++ free Tyrode's solution to remove any Ca^++ remaining in the bath, and allowed to equilibrate for a further 20 min.
Experimental Protocol. Concentration-response curves to CaCl2 are obtained using the following procedure. Preparations are exposed to a depolarizing concentration of KCl (80 mM) for 6 min. At the end of this period CaCl2 is added to the bath cumulatively in the concentration range 0.2-8.0 mM. Successive additions of each Ca^++ concentration are carried out only when the previous response has reached a plateau. When the maximum response has been attained the bath is again washed (five times) with Ca^++ free buffer, and the preparation re-equilibrated for approximately 15 min. A second Ca^++ concentration-response curve is then obtained in the same manner. This second curve serves as control for that tissue.
Further curves are obtained in the presence of increasing concentrations of the test drugs. Where appropriate, the test drug is added to the bath immediately following addition of KCl, and 6 minutes later the concentration-response curve to Ca^++ is obtained. Each test preparation is exposed to three different concentrations of a test drug. […]

Assay [4] deals with spontaneously hypertensive rats. The conditions noted are these: rank among the enantiomers, in words; cited from earlier work.

As a reminder, the Ki is a dissociation constant, usually derived from enzyme kinetics or from competition with a known ligand. In general, Kb refers to the equilibrium dissociation constant of an antagonist, usually derived from a functional assay.

T1 sequence (O35505 whole entry): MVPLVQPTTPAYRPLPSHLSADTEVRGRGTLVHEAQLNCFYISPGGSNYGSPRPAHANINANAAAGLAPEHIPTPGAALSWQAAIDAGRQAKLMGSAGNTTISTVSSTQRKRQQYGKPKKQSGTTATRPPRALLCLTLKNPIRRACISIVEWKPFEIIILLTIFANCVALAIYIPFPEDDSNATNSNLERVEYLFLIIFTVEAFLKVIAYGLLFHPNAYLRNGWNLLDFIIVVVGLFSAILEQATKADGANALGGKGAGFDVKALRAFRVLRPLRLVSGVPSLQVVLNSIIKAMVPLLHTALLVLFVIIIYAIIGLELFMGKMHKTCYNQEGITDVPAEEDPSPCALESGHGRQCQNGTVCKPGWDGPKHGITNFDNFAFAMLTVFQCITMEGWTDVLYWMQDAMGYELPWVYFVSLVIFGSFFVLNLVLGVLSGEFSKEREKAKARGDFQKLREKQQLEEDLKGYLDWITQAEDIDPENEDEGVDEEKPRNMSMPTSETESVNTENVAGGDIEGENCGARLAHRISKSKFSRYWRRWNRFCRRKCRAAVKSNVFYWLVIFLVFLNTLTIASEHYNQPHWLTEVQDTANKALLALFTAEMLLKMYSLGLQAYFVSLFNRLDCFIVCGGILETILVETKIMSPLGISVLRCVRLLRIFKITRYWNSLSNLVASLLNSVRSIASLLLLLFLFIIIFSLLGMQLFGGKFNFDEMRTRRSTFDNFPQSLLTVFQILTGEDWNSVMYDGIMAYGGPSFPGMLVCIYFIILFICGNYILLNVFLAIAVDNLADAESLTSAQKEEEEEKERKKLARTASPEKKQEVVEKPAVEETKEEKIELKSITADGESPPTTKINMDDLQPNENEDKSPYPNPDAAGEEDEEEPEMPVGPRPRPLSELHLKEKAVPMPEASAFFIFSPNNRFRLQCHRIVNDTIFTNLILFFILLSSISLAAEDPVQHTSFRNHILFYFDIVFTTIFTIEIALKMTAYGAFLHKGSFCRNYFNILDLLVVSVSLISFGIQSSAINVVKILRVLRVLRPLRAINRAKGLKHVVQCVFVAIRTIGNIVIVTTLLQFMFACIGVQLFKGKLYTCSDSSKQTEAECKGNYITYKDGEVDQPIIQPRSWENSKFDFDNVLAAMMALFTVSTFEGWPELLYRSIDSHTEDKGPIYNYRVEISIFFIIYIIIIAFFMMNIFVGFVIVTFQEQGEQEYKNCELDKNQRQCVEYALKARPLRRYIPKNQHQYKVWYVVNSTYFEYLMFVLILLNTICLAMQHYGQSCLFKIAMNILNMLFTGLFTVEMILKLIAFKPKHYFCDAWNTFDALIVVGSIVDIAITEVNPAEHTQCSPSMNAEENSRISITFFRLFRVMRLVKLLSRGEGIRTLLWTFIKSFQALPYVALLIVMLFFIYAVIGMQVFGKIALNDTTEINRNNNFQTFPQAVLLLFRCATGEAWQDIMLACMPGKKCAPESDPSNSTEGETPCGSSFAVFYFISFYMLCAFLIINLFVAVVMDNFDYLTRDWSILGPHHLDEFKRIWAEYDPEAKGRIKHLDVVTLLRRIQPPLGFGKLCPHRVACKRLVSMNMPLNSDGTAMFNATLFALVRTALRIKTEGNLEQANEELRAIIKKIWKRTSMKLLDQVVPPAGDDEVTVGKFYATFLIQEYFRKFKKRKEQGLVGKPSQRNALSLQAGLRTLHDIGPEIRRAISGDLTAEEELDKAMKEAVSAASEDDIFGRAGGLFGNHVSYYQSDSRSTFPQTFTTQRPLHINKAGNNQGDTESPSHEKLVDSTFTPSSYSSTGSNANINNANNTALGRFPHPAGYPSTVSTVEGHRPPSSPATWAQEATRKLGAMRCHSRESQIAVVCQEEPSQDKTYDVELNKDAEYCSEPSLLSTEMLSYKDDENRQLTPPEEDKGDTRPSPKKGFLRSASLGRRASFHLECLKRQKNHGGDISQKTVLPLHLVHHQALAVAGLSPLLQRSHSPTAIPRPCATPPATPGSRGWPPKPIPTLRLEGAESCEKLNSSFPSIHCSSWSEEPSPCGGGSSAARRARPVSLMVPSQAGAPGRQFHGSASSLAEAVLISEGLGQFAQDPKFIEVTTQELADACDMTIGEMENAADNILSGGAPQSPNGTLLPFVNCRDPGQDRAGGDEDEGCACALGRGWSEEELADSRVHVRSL

For the compound `COC(=O)C1=C(C)NC(C)=C(C(=O)OCCN(C)C[C@@H]2COc3ccccc3O2)[C@@H]1c1cccc([N+](=O)[O-])c1` [2-[N-methyl-N-[(2,3-dihydro-1,4-benzodioxin-2-yl)methyl]amino]ethyl methyl 2,6-dimethyl-4-(3-nitrophenyl)-1,4-dihydropyridine-3,5-dicarboxylate], the “inhibition of [3H]-nitrendipine binding” value in assay [1] is given as “most potent”.
With `COC(=O)C1=C(C)NC(C)=C(C(=O)OCCN(C)C[C@H]2COc3ccccc3O2)[C@H]1c1cccc([N+](=O)[O-])c1` [2-[N-methyl-N-[(2,3-dihydro-1,4-benzodioxin-2-yl)methyl]amino]ethyl methyl 2,6-dimethyl-4-(3-nitrophenyl)-1,4-dihydropyridine-3,5-dicarboxylate], the “inhibition of [3H]-yohimbine binding” value in assay [3H]-yohimbine binding was “most potent”.
For the compound `COC(=O)C1=C(C)NC(C)=C(C(=O)OC(C)C)[C@@H]1c1cccc2nonc12` [(R)-enantiomer of PN 200-110, isopropyl methyl 4-(2,1,3-benzoxadiazol-4-yl) -1,4-dihydro-2,6-dimethyl-3,5-pyridinedicarboxylate], in assay [2], the “blood flow to the heart and brain” value is listed as “increased”; the cardiac output result is reported as “increased”; the “effect on blood pressure” value is on record as “almost no effect”; the “effect on heart rate” value was “almost no effect”. Also, the “potency in the subendocardium of the left ventricle” value in assay [2] is “surprisingly potent”.
In assay [3], `COC(=O)C1=C(C)NC(C)=C(C(=O)O[C@H]2CN3CCC2CC3)[C@@H]1c1cccc([N+](=O)[O-])c1` [(R,R)-I, (R,R)-1-Azabicyclo[2.2.2]oct-3-yl methyl 1,4-dihydro-2,6-dimethyl-4-(3-nitrophenyl)-3,5-pyridinedicarboxylate] gave a Ki of 0.011 µM. For the same compound, the Kb on Guinea Pig Ileum came out at 0.034 µM.
For `COC(=O)C1=C(C)NC(C)=C(C(=O)O[C@H]2CN3CCC2CC3)[C@H]1c1cccc([N+](=O)[O-])c1` [(R,S)-I, (R,S)-1-Azabicyclo[2.2.2]oct-3-yl methyl 1,4-dihydro-2,6-dimethyl-4-(3-nitrophenyl)3,5-pyridinedicarboxylate] the same measures were 0.056 µM and 0.174 µM.
Consider `COC(=O)C1=C(C)NC(C)=C(C(=O)OC(C)C)[C@H]1c1cccc2nonc12` [(S)-enantiomer of PN 200-110, isopropyl methyl 4-(2,1,3-benzoxadiazol-4-yl) -1,4-dihydro-2,6-dimethyl-3,5-pyridinedicarboxylate], for which, in assay [2], the “blood flow to the heart and brain” value was “increased”; the cardiac output result is reported as “increased”; the “effect on blood pressure” value is given as “lowered”; the “effect on heart rate” value was “lowered”.
`COC(=O)C1=C(C)NC(C)=C(C(=O)O[C@H]2CN3CCC2CC3)[C@H]1c1cccc([N+](=O)[O-])c1` [(S,R)-I, (S,R)-1-azabicyclo[2.2.2]oct-3-yl methyl 1,4-dihydro-2,6-dimethyl-4-(3-nitrophenyl)-3,5pyridinedicarboxylate, hydrochloride]: at Guinea Pig Ileum, the Kb was found to be 3.16 µM.
Still for that read-out and setting: for `COC(=O)C1=C(C)NC(C)=C(C(=O)O[C@@H]2CN3CCC2CC3)[C@H]1c1cccc([N+](=O)[O-])c1` [(S,S)-I, (S,S)-1-Azabicyclo[2.2.2]oct-3-yl methyl 1,4-dihydro-2,6-dimethyl-4-(3-nitrophenyl)-3,5-pyridinedicarboxylate] the value was 1.62 µM.
Consider `COC(=O)C1=C(C)NC(C)=C(C(=O)O[C@H]2CCCN(Cc3ccccc3)C2)[C@H]1c1cccc([N+](=O)[O-])c1` [(S,S)-enantiomer of 1-benzyl-3-piperidinyl ester], for which the “Ca++ channel blocking activity as determined by lowering of blood pressure in spontaneously hypertensive rats” value in assay [4] was “greatest”.
Turning to `COC(=O)C1=C(C)NC(C)=C(C(=O)O[C@H]2CCN(Cc3ccccc3)C2)[C@H]1c1cccc([N+](=O)[O-])c1` [(S,S)-enantiomer of 1-benzyl-3-pyrrolidinyl ester], in assay [1], the “Ca++ channel blocking activity as determined by inhibition of [3H]-nitrendipine binding” value is listed as “greatest”.
